Data published in paper PMC5042751 (Molecular Medicine Reports, 2016).
Like-named read-outs stand apart in the source and are kept apart here.

How the values were obtained:
OATP2B1 = assay: Intestinal protein expression by western blotting; format: in vivo, rats; conditions: rat small intestine
Ugt1a1 = assay: Intestinal and hepatic mRNA expression by RT-qPCR; format: in vivo, rats
Mrp2 = assay: Intestinal and hepatic protein expression by western blotting; format: in vivo, rats
Slco2b1 = assay: Intestinal mRNA expression by RT-qPCR; format: in vivo, rats; conditions: rat small intestine
Cyp3a1 [1] = system: Cyp3a1
Slco1b2 = assay: Hepatic mRNA expression by RT-qPCR; format: in vivo, rats; conditions: rat liver
Cyp3a1 [2] = system: Cyp3a1; remark: listed apart in the source
Bcrp = assay: Intestinal and hepatic protein expression by western blotting; format: in vivo, rats; conditions: rat liver
[3] = Que 25 mg/kg oral 7 days without CsA (Que-WOC) vs control
[4] = Que 50 mg/kg oral 7 days without CsA (Que-WOC) vs control
[5] = Que 100 mg/kg oral 7 days without CsA (Que-WOC) vs control
[6] = rat liver, Que 25 mg/kg oral 7 days without CsA (Que-WOC) vs control
[7] = rat liver, Que 25 mg/kg with CsA 10 mg/kg oral 7 days (Que-WC) vs CsA alone
[8] = rat liver, Que 50 mg/kg oral 7 days without CsA (Que-WOC) vs control
[9] = rat liver, Que 50 mg/kg with CsA 10 mg/kg oral 7 days (Que-WC) vs CsA alone
[10] = rat liver, Que 100 mg/kg oral 7 days without CsA (Que-WOC) vs control
[11] = rat liver, Que 100 mg/kg with CsA 10 mg/kg oral 7 days (Que-WC) vs CsA alone
[12] = rat small intestine, Que 25 mg/kg oral 7 days without CsA (Que-WOC) vs control
[13] = rat small intestine, Que 50 mg/kg oral 7 days without CsA (Que-WOC) vs control
[14] = rat small intestine, Que 100 mg/kg oral 7 days without CsA (Que-WOC) vs control
[15] = rat liver, Que 25 mg/kg (low-dose) oral 7 days vs control
[16] = rat liver, Que 50 mg/kg (moderate-dose) oral 7 days vs control
[17] = rat liver, Que 100 mg/kg (high-dose) oral 7 days vs control

O=c1c(O)c(-c2ccc(O)c(O)c2)oc2cc(O)cc(O)c12 [Que, 3,3′,4′,5,7-pentahydroxyflavone]
change in protein expression level of OATP2B1 (OATP2B1; [3]): did not produce a significant effect | decrease in protein expression level of OATP2B1 (OATP2B1; [4]): 43% | decrease in protein expression level of OATP2B1 (OATP2B1; [5]): 76% | decrease in mRNA expression of Ugt1a1 (Ugt1a1; [6]): 41% | decrease in mRNA expression level of Ugt1a1 (Ugt1a1; [7]): 28% | decrease in mRNA expression of Ugt1a1 (Ugt1a1; [8]): 81% | decrease in mRNA expression level of Ugt1a1 (Ugt1a1; [9]): 71% | decrease in mRNA expression of Ugt1a1 (Ugt1a1; [10]): 92% | decrease in mRNA expression level of Ugt1a1 (Ugt1a1; [11]): 92% | decrease in mRNA expression of Ugt1a1 (Ugt1a1; [12]): 20% | decrease in mRNA expression of Ugt1a1 (Ugt1a1; [13]): 76% | decrease in mRNA expression of Ugt1a1 (Ugt1a1; [14]): 84% | decrease in protein expression level of MRP2 (Mrp2; [6]): 14% | decrease in protein expression level of MRP2 (Mrp2; rat liver, Que 25 mg/kg with CsA 10 mg/kg oral 7 days (Que-WC) vs CsA treatment): 22% | decrease in protein expression level of MRP2 (Mrp2; [8]): 27% | decrease in protein expression level of MRP2 (Mrp2; rat liver, Que 50 mg/kg with CsA 10 mg/kg oral 7 days (Que-WC) vs CsA treatment): 23% | decrease in protein expression level of MRP2 (Mrp2; [10]): 58% | decrease in protein expression level of MRP2 (Mrp2; rat liver, Que 100 mg/kg with CsA 10 mg/kg oral 7 days (Que-WC) vs CsA treatment): 35% | decrease in protein expression level of MRP2 (Mrp2; [12]): 13% | decrease in protein expression level of MRP2 (Mrp2; [13]): 45% | decrease in protein expression level of MRP2 (Mrp2; [14]): 93% | decrease in mRNA expression level of Slco2b1 (Slco2b1; [3]): 84% | decrease in mRNA expression level of Slco2b1 (Slco2b1; [4]): 92% | decrease in mRNA expression level of Slco2b1 (Slco2b1; [5]): 97% | decrease in mRNA expression level of Cyp3a1 (Cyp3a1 [1]; [6]): 37% | decrease in mRNA expression level of Cyp3a1 (Cyp3a1 [1]; [7]): 31% | decrease in mRNA expression level of Cyp3a1 (Cyp3a1 [1]; [8]): 86% | decrease in mRNA expression level of Cyp3a1 (Cyp3a1 [1]; [9]): 77% | decrease in mRNA expression level of Cyp3a1 (Cyp3a1 [1]; [10]): 98% | decrease in mRNA expression level of Cyp3a1 (Cyp3a1 [1]; [11]): 65% | decrease in mRNA expression level of Cyp3a1 (Cyp3a1 [1]; [12]): 45% | decrease in mRNA expression level of Cyp3a1 (Cyp3a1 [1]; [13]): 83% | decrease in mRNA expression level of Cyp3a1 (Cyp3a1 [1]; [14]): 88% | change in protein expression level of CYP3A2 (Cyp3a2; [15]): did not produce significant effects | change in protein expression level of CYP3A2 (Cyp3a2; [16]): did not produce significant effects | decrease in protein expression level of CYP3A2 (Cyp3a2; [17]): 73% | decrease in protein expression level of CYP3A2 (Cyp3a2; [11]): 54% | decrease in protein expression level of CYP3A2 (Cyp3a2; [12]): 14% | decrease in protein expression level of CYP3A2 (Cyp3a2; [13]): 40% | decrease in protein expression level of CYP3A2 (Cyp3a2; [14]): 95% | decrease in mRNA expression level of Slco1b2 (Slco1b2; [3]): 79% | decrease in mRNA expression level of Slco1b2 (Slco1b2; Que 25 mg/kg with CsA 10 mg/kg oral 7 days (Que-WC) vs CsA treatment): 72% | decrease in mRNA expression level of Slco1b2 (Slco1b2; [4]): 92% | decrease in mRNA expression level of Slco1b2 (Slco1b2; Que 50 mg/kg with CsA 10 mg/kg oral 7 days (Que-WC) vs CsA treatment): 90% | decrease in mRNA expression level of Slco1b2 (Slco1b2; [5]): 95% | decrease in mRNA expression level of Slco1b2 (Slco1b2; Que 100 mg/kg with CsA 10 mg/kg oral 7 days (Que-WC) vs CsA treatment): 94% | change in protein expression level of CYP3A1 (Cyp3a1 [2]; [15]): did not produce significant effects | change in protein expression level of CYP3A1 (Cyp3a1 [2]; [16]): did not produce significant effects | decrease in protein expression level of CYP3A1 (Cyp3a1 [2]; [17]): 70% | decrease in protein expression level of CYP3A1 (Cyp3a1 [2]; [11]): 56% | decrease in protein expression level of CYP3A1 (Cyp3a1 [2]; [12]): 17% | decrease in protein expression level of CYP3A1 (Cyp3a1 [2]; [13]): 45% | decrease in protein expression level of CYP3A1 (Cyp3a1 [2]; [14]): 91% | decrease in protein expression level of BCRP (Bcrp; [3]): 7% | decrease in protein expression level of BCRP (Bcrp; Que 25 mg/kg with CsA 10 mg/kg oral 7 days (Que-WC) vs CsA alone): 23% | decrease in protein expression level of BCRP (Bcrp; [4]): 27% | decrease in protein expression level of BCRP (Bcrp; Que 50 mg/kg with CsA 10 mg/kg oral 7 days (Que-WC) vs CsA alone): 31% | decrease in protein expression level of BCRP (Bcrp; [5]): 75% | decrease in protein expression level of BCRP (Bcrp; Que 100 mg/kg with CsA 10 mg/kg oral 7 days (Que-WC) vs CsA alone): 67%
